Several values for one entry are separate records, joined by “and”; a condition that tells them apart may be missing. Equal values may be shown once. Where a name gives a salt, the structure may show the parent alone. Read-outs that look alike come from different tables or passages of the source.
Legend:
whole blood coagulation [1] = test: Inhibition of histone-induced perturbation of whole blood coagulation (ROTEM); assay type: biochemical, human; settings: mCBS 200 μg/mL
Excerpt: In comparison, the same volume of water had no effect (FIG. 19).

whole blood coagulation [2] = system: whole blood coagulation
Sprague Dawley rats = system: Sprague Dawley rats
Protocol: This study examined acute toxicity from single IV administration of mCBS in rats with doses up to 1000 mg/kg.
The acute toxicity of β-O-methyl cellobioside sulfate (mCBS) was assessed in Sprague Dawley rats following intravenous administration of a single bolus dose. A total of five groups of n=3 adult female rats were treated with 10, 30, 100, 300 and 1000 mg/kg doses of mCBS test item in the form of the sodium salt (mCBS.Na) in this dose range finding study. […] The rats were then observed for 7 days prior to termination without necropsy.

[3] = mCBS vs CBS levels in bulk powder stored at −20° C. (CAD); assay type: physicochemical
Protocol: Table 2b compares mCBS vs CBS levels in a representative batch of bulk powder when stored at −20° C. over 24 months. T is for time in months. T=0 or T0 represents analytical results carried out on completion of manufacture. Subsequent analysis indicated are relative to the initial analysis of the drug powder or formulation (e.g. […] Analytical method employing CAD (Charged Aerosol Detector) was used to measure the level of mCBS purity and its impurities and expressed as CAD %.

rat plasma proteins = test: Plasma protein binding by ultrafiltration, rat plasma; assay type: in vitro ADME; settings: for Concentration of mCBS, 200 ng/mL Post-filter / Concentration of mCBS, 200 ng/mL Pre-filter / Concentration of mCBS, 2000 ng/mL Post-filter / Concentration of mCBS, 2000 ng/mL Pre-filter: replicates and Mean
Protocol: (§1) Protein binding was assessed by an ultrafiltration method using Centrifree® Ultrafiltration Devices with a 30000 dalton molecular weight cut-off point. Briefly, known concentrations of mCBS (as free base) were added to human, rat and dog plasma samples and incubated for 20 min at 37° C. The samples were then subject to ultrafiltration to separate protein bound and unbound drug.
(§2) mCBS stock solutions (10 μL) were spiked into solutions of each test matrix (490 μL) as listed below in Table 9 to have a final concentration of 200 ng/mL & 2000 ng/m L.
(§3) Spiked samples were then incubated at 37° C. for 20 minutes in a water bath. Aliquots of the samples from each test group (500 μL) were transferred to the ultrafiltration devices (n=3) and centrifuged for 20 minutes at 1000 g. After centrifugation, aliquots of the ultrafiltrates (50 μL) were transferred to separate test tubes for extraction, alongside duplicate aliquots of the samples prior to ultrafiltration from each test group.
(§4) For quantification of samples before ultrafiltration, samples were analysed against a freshly prepared standard curve in plasma.

human plasma proteins = test: Plasma protein binding by ultrafiltration, human plasma; assay type: in vitro ADME; settings: for Concentration of mCBS, 200 ng/mL Post-filter / Concentration of mCBS, 200 ng/mL Pre-filter / Concentration of mCBS, 2000 ng/mL Post-filter / Concentration of mCBS, 2000 ng/mL Pre-filter: replicates and Mean
Protocol: as §1, §2, §3, §4

Sprague-Dawley rats = system: Sprague-Dawley rats
Protocol: The objective of these studies was to determine the toxicity of the test item, mCBS, when administered by continuous (24 hours/day) intravenous infusion through a surgically implanted catheter for 7 consecutive days to Sprague-Dawley rats.
The test and control item dose formulations of mCBS (in the form of the heptasodium salt mCBS.Na) were administered to groups of rats by continuous (24 hours/day) intravenous infusion for 7 consecutive days as described in the Table 14 below.
Parameters monitored during this study included mortality, clinical observations, body weights and food consumption. In addition, hematology, coagulation and clinical chemistry parameters were evaluated on Day 9. Blood samples were collected from the animals at timepoints relative to the start of the infusion for analysis of test item concentration in plasma. At termination (Day 9), all animals were euthanized and subjected to a gross necropsy examination. Organ weights were measured on selected organs and a selected list of tissues, including gross lesions, were retained and prepared for microscopic evaluation.

human RBCs [4] = test: Histone-induced RBC fragility / lysis under shear; assay type: cell-based
[5] = mCBS vs CBS levels in phosphate buffered pH 7.5 clinical trial formulation stored at 2-8° C. (CAD); assay type: physicochemical; settings: 2-8° C.
[6] = Pharmacokinetics, intravenous bolus 20 mg/kg; assay type: in vivo, rat
Protocol: A total of ten blood samples were collected from three rats at time points ranging from pre-dose to 48 hours post-dose. The resulting blood samples were processed to plasma and subsequently analysed for the concentration of mCBS (free-base) using an LC-MS/MS based method. The plasma concentration versus time data were used for calculation of pharmacokinetic parameters.

human RBCs [7] = test: Histone-induced RBC aggregation (flow cytometry autofluorescence, SEM); assay type: cell-based
[8] = animals treated with 1394 mg/kg/day (free base)
[9] = histones 400 μg/mL 55 min, then mCBS 5 min
[10] = IV bolus 20 mg/kg as sodium salt

With `CO[C@@H]1O[C@H](COS(=O)(=O)O)[C@@H](O[C@@H]2O[C@H](COS(=O)(=O)O)[C@@H](OS(=O)(=O)O)[C@H](OS(=O)(=O)O)[C@H]2OS(=O)(=O)O)[C@H](OS(=O)(=O)O)[C@H]1OS(=O)(=O)O` [mCBS, β-O-methyl cellobioside sulfate] the “inhibition of histone-induced prolongation of clotting time” value (whole blood coagulation [1]) was “able to inhibit the anticoagulant effects of both 400 and 800 μg/mL of histones”, the “concentration that doubled the control clotting time” value (whole blood coagulation [2]) was 100000 ng/mL and the “reduction in anticoagulant activity compared to LMWH, Enoxaparin” value (whole blood coagulation [2]) was 110 fold. For the same compound, the “MTD estimate from potency assessment, free base” value (Sprague Dawley rats; IV bolus single and 7-day studies, corrected for potency) was ~600 mg/kg, the “Maximum Tolerated Dose (MTD), as free base” value (Sprague Dawley rats; single IV bolus, corrected for purity and sodium content) was 815 mg/kg and the “stability when stored in powder” value ([3]; 24 months) was “high stability”. The “level in bulk powder” value ([3]; T0 (months)) was 98.56 CAD %, the “level in bulk powder” value ([3]; T1) was 98.45 CAD % and the “level in bulk powder” value ([3]; T3) was 98.28 CAD %. For the same compound, the “level in bulk powder” value ([3]; T6) was 98.22 CAD %, the “level in bulk powder” value ([3]; T9) was 97.77 CAD % and the “level in bulk powder” value ([3]; T12) was 98.00 CAD %. The “level in bulk powder” value ([3]; T18) was 97.94 CAD %, the “level in bulk powder” value ([3]; T24) was 98.26 CAD % and the Plasma protein binding (rat plasma proteins; 200 ng/mL) was 19.4%. The Plasma protein binding (rat plasma proteins; 2000 ng/mL) was 19.8%, the “Concentration of mCBS, 200 ng/mL Post-filter” value (rat plasma proteins) was 164 ng/mL and 177 ng/mL and 167 ng/mL and the “Concentration of mCBS, 200 ng/mL Pre-filter” value (rat plasma proteins) was 205 ng/mL and 217 ng/mL. The “Concentration of mCBS, 2000 ng/mL Post-filter” value (rat plasma proteins) was 1710 ng/mL and 1740 ng/mL and 1690 ng/mL, the “Concentration of mCBS, 2000 ng/mL Pre-filter” value (rat plasma proteins) was 2090 ng/mL and 2180 ng/mL and the “Concentration of mCBS, 200 ng/mL Post-filter” value (rat plasma proteins; mean) was 170 ng/mL. For the same compound, the “Concentration of mCBS, 200 ng/mL Pre-filter” value (rat plasma proteins; mean) was 211 ng/mL, the “Concentration of mCBS, 2000 ng/mL Post-filter” value (rat plasma proteins; mean) was 1713 ng/mL and the “Concentration of mCBS, 2000 ng/mL Pre-filter” value (rat plasma proteins; mean) was 2135 ng/mL. For the same compound, the “Plasma protein binding (%)” value (human plasma proteins; 200 ng/mL) was 22.3%, the “Plasma protein binding (%)” value (human plasma proteins; 2000 ng/mL) was 15.8% and the “Concentration of mCBS, 200 ng/mL Post-filter” value (human plasma proteins) was 181 ng/mL and 150 ng/mL and 169 ng/mL. For the same compound, the “Concentration of mCBS, 200 ng/mL Pre-filter” value (human plasma proteins) was 217 ng/mL and 213 ng/mL, the “Concentration of mCBS, 2000 ng/mL Post-filter” value (human plasma proteins) was 1860 ng/mL and 1750 ng/mL and 1770 ng/mL and the “Concentration of mCBS, 2000 ng/mL Pre-filter” value (human plasma proteins) was 2190 ng/mL and 2070 ng/mL. For the same compound, the “Concentration of mCBS, 200 ng/mL Post-filter” value (human plasma proteins; mean) was 167 ng/mL, the “Concentration of mCBS, 200 ng/mL Pre-filter” value (human plasma proteins; mean) was 215 ng/mL and the “Concentration of mCBS, 2000 ng/mL Post-filter” value (human plasma proteins; mean) was 1793 ng/mL. For the same compound, the “Concentration of mCBS, 2000 ng/mL Pre-filter” value (human plasma proteins; mean) was 2130 ng/mL, the “AUC5-96 h and Css versus dose” value (Sprague-Dawley rats; 1394-5575 mg/kg/day) was “increased linearly with dose” and the “plasma concentration versus time” value (Sprague-Dawley rats; 5 h to 96 h (or 168 h) infusion interval) was “steady state concentrations of mCBS were maintained”. For the same compound, the liver microscopic findings (Sprague-Dawley rats; [8]) was “accumulation of foamy Kupffer cells”, the “lymph node microscopic findings” value (Sprague-Dawley rats; [8]) was “accumulation of foam macrophages” and the liver microscopic findings (Sprague-Dawley rats; animals treated with 2178 mg/kg/day (free base)) was “single cell necrosis”. For the same compound, the liver microscopic findings (Sprague-Dawley rats; animals treated with 2178 and 5575 mg/kg/day) was “focal or multiple focal necrosis”, the spleen microscopic findings (Sprague-Dawley rats; animals treated with ≤1394 mg/kg/day (so in the source), free base) was “accumulation of foamy macrophages associated with increased apoptotic cells in the red pulp” and the kidney microscopic findings (Sprague-Dawley rats; animals treated with ≤2178 mg/kg/day (so in the source), free base) was “proximal tubular vacuolation/rarefaction”. The “urea, total protein and albumin” value (Sprague-Dawley rats; both sexes at 5575 mg/kg/day) was “increase in urea and decreases in total protein and albumin”, the “white blood cell lines” value (Sprague-Dawley rats; both sexes at doses ≤3484 mg/kg/day (so in the source)) was “Increases in white blood cell lines” and the “body weight gain and food consumption” value (Sprague-Dawley rats; both sexes, 5575 mg/kg/day (free base)) was “Decreases in body weight gain”. The “No Observable Adverse Effect Level (NOAEL)” value (Sprague-Dawley rats; free base, corrected for potency and salt content, continuous IV infusion 7 days) was 1394 mg/kg/day, the “red blood cell parameters and reticulocytes” value (Sprague-Dawley rats; males at 5575 mg/kg/day) was “decreases in red blood cell counts, hemoglobin, hematocrit, mean corpuscular volume and mean corpuscular hemoglobin concentration as well as increases in the reticulocytes” and the “activated partial thromboplastin time” value (Sprague-Dawley rats; males at doses 2178 mg/kg/day, females at doses ≤3484 mg/kg/day (so in the source)) was “Increases in activated partial thromboplastin time”. For the same compound, the “Liver enzymes (ALT, AST), cholesterol and triglycerides” value (Sprague-Dawley rats; males dosed at 5575 mg/kg/day) was “increased”, the “inhibition of histone-induced RBC lysis under shear” value (human RBCs [4]; 0-200 μg/mL prior to 400 μg/mL histones 60 min, 100 mm/s, 40× repetitions) was “inhibit histone-induced lysis under shear in a dose-dependent manner” and the “reversal of histone-induced RBC susceptibility to lysis” value (human RBCs [4]; [9]) was “near complete inhibition”. The “level in phosphate buffered pH 7.5 formulation” value ([5]; T0 (months)) was 98.33 CAD %, the “level in phosphate buffered pH 7.5 formulation” value ([5]; T2) was 98.39 CAD % and the “level in phosphate buffered pH 7.5 formulation” value ([5]; T3) was 98.37 CAD %. The “level in phosphate buffered pH 7.5 formulation” value ([5]; T7) was 98.54 CAD %, the “level in phosphate buffered pH 7.5 formulation” value ([5]; T10) was 98.47 CAD % and the “level in phosphate buffered pH 7.5 formulation” value ([5]; T13) was 98.44 CAD %. For the same compound, the “level in phosphate buffered pH 7.5 formulation” value ([5]; T19) was 98.78 CAD %, the “stability when stored in aqueous buffered solution” value ([5]; over 18 months) was “high stability” and the “AUCinf, mean (±SEM)” value [6, 10] was 35000 (±2940) ng·h/mL. For the same compound, the “AUClast, mean (±SEM)” value [6, 10] was 34300 (±2460) ng·h/mL, the “apparent elimination half-life (T½), mean (±SEM)” value [6, 10] was 77.5 (±54.5) h and the “mean residence time (MRT), mean (±SEM)” value [6, 10] was 5.58 (±3.99) h. The “total body clearance (Cl), mean (±SEM)” value [6, 10] was 0.472 (±0.0377) L/h/kg, the “volume of distribution (Vz), mean (±SEM)” value [6, 10] was 46.9 (±30.7) L/kg and the “concentration at time zero (C0), mean (±SEM)” value ([6]; IV bolus 20 mg/kg as sodium salt (16.3 mg/kg free base), plasma, n=3) was 73400 (±8560) ng/mL. The “administered dose removed from the central compartment” value ([6]; IV bolus 20 mg/kg, first 4 hours) was “over 90%”, the “inhibition of histone-induced RBC aggregation” value (human RBCs [7]; 0-200 μg/mL added prior to 400 μg/mL histones) was “inhibit histone-induced RBC aggregation in a dose dependent manner” and the “reversal of histone-induced RBC aggregation” value (human RBCs [7]; [9]) was “near complete inhibition”. The “prevention of histone-induced RBC aggregation” value (human RBCs [7]; mCBS 200 μg/mL, histones 400 μg/mL 60 min) was “prevented”.

Source: patent US11628179B2, “Compounds for treating and preventing extracellular histone mediated pathologies” (priority 2017, dated 2023)
